Structures can show the parent of a compound that is named as a salt. Where two headings read alike, the source gives them in different places.
Experiments:
Assay type in all cases: biochemical
[1] = biological target: Falcipain-2 (Plasmodium falciparum, UniProt Q8I6U4); assay: Falcipain-2 enzymatic assay (assay 1)
In short: (§1)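 Recombinant parasite enzyme with 30 uM H-D-VLR-AFC in 100 mM sodium acetate pH 5.5, 10 mM DTT, 0.5 mM CHAPS, 1% DMSO, ambient temperature. Endpoint after 60 minutes, quenched with 16.6 uM E-64; AFC fluorescence (ex 405/em 530). IC50 from four-parameter fit, apparent KI assuming competitive inhibition.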

[2] = biological target: Falcipain-3 (Plasmodium falciparum, UniProt Q8IIL0); assay: Falcipain-3 enzymatic assay (assay 1)
In short: as §1

[3] = biological target: T1, Cathepsin K (Homo sapiens, UniProt P43235); assay: Cathepsin K enzymatic assay (assay 1); conditions: human recombinant enzyme, Z-FR-AFC substrate, pH 5.5
T1 sequence (P43235 115-329): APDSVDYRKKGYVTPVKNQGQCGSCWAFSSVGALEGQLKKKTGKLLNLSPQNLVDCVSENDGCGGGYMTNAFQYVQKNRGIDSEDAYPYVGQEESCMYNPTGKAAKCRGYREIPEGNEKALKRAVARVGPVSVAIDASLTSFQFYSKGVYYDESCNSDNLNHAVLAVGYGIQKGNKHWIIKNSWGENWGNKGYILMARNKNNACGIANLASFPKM
In short: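 Human recombinant cathepsin K was assayed with the fluorogenic substrate Z-FR-AFC at 20 uM in 100 mM sodium acetate, pH 5.5, with 5 mM L-cysteine, 1 mM CHAPS, 5 mM EDTA and 1% DMSO. Enzyme plus substrate was added to wells holding inhibitor in DMSO. After 60 minutes at ambient temperature, 16.6 uM E-64 quenched the reaction. AFC fluorescence (excitation 405 nm, emission 530 nm) was read, and IC50 came from a four-parameter dose-response fit.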

[4] = biological target: Cathepsin S (Homo sapiens, UniProt P25774); assay: Cathepsin S enzymatic assay (assay 1); conditions: human recombinant enzyme, KQKLR-AMC substrate, pH 6.5
Method: Assay 1) Determination of Falcipain-2, Falcipain-3, Vivapain-2, Cathepsin K Cathepsin S, Cathepsin L, and Cathepsin B Proteolytic Catalytic Activity
Assays for Falcipain-2, Falcipain-3, and Vivapain-2 are carried out with parasitic recombinant enzymes. Cathepsins K, S, L, and B are carried out with human recombinant enzymes. Standard assay conditions for the determination of kinetic constants used a fluorogenic peptide substrate, typically H-D-VLR-AFC (Falcipain-2, Falcipain-3, Vivapain-2), Z-FR-AFC (Cathepsin K, L, B), or KQKLR-AMC (Cathepsin S) and are determined in 100 mM sodium acetate, pH 5.5, containing 10 mM DTT and 0.5 mM CHAPS (Falcipain-2, Falcipain-3, Vivapain-2), and 100 mM sodium acetate, pH 5.5, containing 5 mM L-cysteine, 1 mM CHAPS and 5 mM EDTA (Cathepsin K, L, B), or 50 mM MES, pH 6.5, containing 0.5 mM CHAPS, 10 mM L-CYS, 5 mM EDTA (Cathepsin S). Stock substrate solutions are prepared at 20 mM in DMSO. The activity assays contained 30 uM substrate (Falcipain-2, Falcipain-3, Vivapain-2), 20 uM substrate (Cathepsin K), 25 uM substrate (Cathepsin B), 5 uM substrate (Cathepsin L), and 30 uM substrate (Cathepsin S). All assays contained 1% DMSO. […] All assays are conducted at ambient temperature as end point assays being quenched after 60 minutes with the exception of Cathepsin S at 90 minutes, with 16.6 uM E-64 in 1% DMSO. Product formation (AFC or AMC) is determined from fluorescence (excitation at 405 nm; emission at 530 nm, AFC, or excitation at 360 nm; emission at 460 nm, AMC) monitored with a LJL Aquest (Molecular Devices) fluorescent plate reader. In the case of kinetic reads (used in mechanism of action studies), the reaction is not quenched but is read in the plate reader every 3 minutes for approximately 90 minutes. In addition, the mechanism of action studies for Falcipain-2 utilize Z-LR-AMC as the substrate. Product formation is determined from the fluorescence of AMC, measured with a LJL Acquest (Molecular Devices) fluorescent plate reader (excitation at 360 nm; emission at 460 nm).
Potential inhibitors are evaluated using the quenched read (endpoint) method. Assays are carried out in the presence of variable concentrations of test compound. Reactions are initiated by addition of enzyme and substrate to wells containing inhibitor stamped in 100% DMSO. For endpoint assays, the reaction is quenched with the addition of E64. Dose response data is fit to an IC50 curve with preset fitting tools according to equation 1:
y=a+(b−a)/(1+(10^x/10^c)^d) (1)
where y is the response at a particular inhibitor concentration x, a is the minimum response value, b is the maximum response value, c is the IC50, and d is the slope of the IC50 curve. Assuming the compound is a competitive inhibitor, the apparent KI can be calculated from IC50, as shown in equation 2: […]

[5] = parasitic recombinant enzyme, H-D-VLR-AFC substrate, pH 5.5, endpoint read, read-out: Falcipain-3 IC50

Chain of Cathepsin S (P25774 115-331): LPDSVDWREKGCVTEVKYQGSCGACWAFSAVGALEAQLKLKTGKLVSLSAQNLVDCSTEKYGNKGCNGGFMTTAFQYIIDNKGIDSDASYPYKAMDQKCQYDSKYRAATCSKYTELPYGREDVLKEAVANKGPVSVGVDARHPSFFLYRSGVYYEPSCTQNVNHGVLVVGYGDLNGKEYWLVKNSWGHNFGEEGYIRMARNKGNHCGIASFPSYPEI
Chain of Falcipain-3 (Q8IIL0 243-492): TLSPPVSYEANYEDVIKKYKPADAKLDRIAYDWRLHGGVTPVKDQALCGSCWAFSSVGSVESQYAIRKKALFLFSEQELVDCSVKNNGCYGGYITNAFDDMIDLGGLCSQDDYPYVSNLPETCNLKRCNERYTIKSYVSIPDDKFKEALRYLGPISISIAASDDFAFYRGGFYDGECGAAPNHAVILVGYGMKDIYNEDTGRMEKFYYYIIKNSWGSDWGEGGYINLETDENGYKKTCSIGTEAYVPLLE
Chain of Falcipain-2 (Q8I6U4 244-484): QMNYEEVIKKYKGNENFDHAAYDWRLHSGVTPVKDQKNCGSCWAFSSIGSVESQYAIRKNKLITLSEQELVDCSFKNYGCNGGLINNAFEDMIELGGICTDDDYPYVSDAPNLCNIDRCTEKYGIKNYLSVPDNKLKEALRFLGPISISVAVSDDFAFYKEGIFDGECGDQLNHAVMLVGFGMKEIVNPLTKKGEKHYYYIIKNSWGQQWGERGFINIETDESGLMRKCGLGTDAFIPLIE

Compound | IC50 [1] | IC50 [2] | IC50 [3] | IC50 [4] | IC50 [2, 5]
CC1CCC(N(NC(=O)c2ccc(CN3CCC(N4CCN(C)CC4)CC3)cc2)c2nc(C#N)ncc2Br)C1 (mixture of isomers) [Example 4, N′-(5-bromo-2-cyano-4-pyrimidinyl)-N′-(3-methylcyclopentyl)-4-{[4-(4-methyl-1-piperazinyl)-1-piperidinyl]methyl}benzohydrazide trifluoroacetate] | < 1 nM | 1 to 2.5 nM | < 1.5 nM | < 1000 nM | 
CC1CCC(N(NC(=O)c2ccc(CN3CCN(CC4CCN(C)CC4)CC3)cc2)c2nc(C#N)ncc2Br)C1 (mixture of isomers) [Example 5, N′(5-bromo-2-cyano-4-pyrimidinyl)-N′-(3-methylcyclopentyl)-4-({4-[(1-methyl4-piperidinyl)methyl]-1-piperazinyl}methyl)benzohydrazide trifluoroacetate] | < 1 nM | 15 to 150 nM | < 1.5 nM | < 1000 nM | 
CN1CCN(Cc2ccc(C(=O)NN(c3nc(C#N)ncc3Br)C3CCCC3)cc2)CC1 [Example 1, N′-(5-bromo-2-cyano-4-pyrimidinyl)-N′-cyclopentyl-4-[(4-methyl-1-piperazinyl)methyl]benzohydrazide trifluoroacetate] | < 1 nM |  | < 1.5 nM | < 200 nM | 
CN1CCN(C2CCN(Cc3ccc(C(=O)NN(c4nc(C#N)ncc4Br)C4CCCCC4)cc3)CC2)CC1 [Example 17, N′-(5-bromo-2-cyano-4-pyrimidinyl)-N′-cyclohexyl-4-{[4-(4-methyl-1-piperazinyl)-1-piperidinyl]methyl}benzohydrazide trifluoroacetate] | < 1 nM | 2.5 to 15 nM | < 1.5 nM | < 1000 nM | 
CN1CCCC(CN2CCN(Cc3cccc(C(=O)NN(c4nc(C#N)ncc4Br)C4CCCCC4)c3)CC2)C1 (stereo not shown) [Example 27, N′-(5-bromo-2-cyano-4-pyrimidinyl)-N′-cyclohexyl-3-({4-[(1-methyl-3-piperidinyl)methyl]-1-piperazinyl}methyl)benzohydrazide trifluoroacetate] | < 1 nM | 2.5 to 15 nM | < 1.5 nM | < 1000 nM | 
CN1CCN(C2CCN(Cc3ccc(C(=O)NN(c4nc(C#N)ncc4Cl)C4CCCCC4)cc3)CC2)CC1 [Example 40, N′-(5-chloro-2-cyano-4-pyrimidinyl)-N′-cyclohexyl-4-{[4-(4-methyl-1-piperazinyl)-1-piperidinyl]methyl}benzohydrazide] | < 1 nM |  | < 1.5 nM | < 200 nM | 2.5 to 15 nM
CN1CCN(C2CCN(Cc3ccc(C(=O)NN(c4nc(C#N)ncc4Cl)C4CCCCC4)cc3)CC2)CC1 [Example 41, N′-(5-chloro-2-cyano-4-pyrimidinyl)-N′-cyclohexyl-4-{([4-(4-methyl-1-piperazinyl)-1-piperidinyl]methyl}benzohydrazidedihydrochloride] |  |  | < 1.5 nM | < 200 nM | 
CN(CCC1OCCO1)Cc1ccc(C(=O)NN(c2nc(C#N)ncc2Cl)C2CCCC2)cc1 [Example 61, N′-(5-chloro-2-cyano-4-pyrimidinyl)-N′-cyclopentyl-4-{[[2-(1,3-dioxolan-2-yl)ethyl](methyl)amino]methyl}benzohydrazide trifluoroacetate] | < 1 nM | 2.5 to 15 nM |  | < 200 nM | 
CN(CCc1ccccc1)Cc1ccc(C(=O)NN(c2nc(C#N)ncc2Cl)C2CCCC2)cc1 [Example 62, N′-(5-chloro-2-cyano-4-pyrimidinyl)-N′-cyclopentyl-4-{[methyl(2-phenylethyl)amino]methyl}benzohydrazide trifluoroacetate] | < 1 nM | 2.5 to 15 nM |  | < 200 nM | 
CN(CCCc1ccccc1)Cc1ccc(C(=O)NN(c2nc(C#N)ncc2Cl)C2CCCC2)cc1 [Example 64, N′-(5-chloro-2-cyano-4-pyrimidinyl)-N′-cyclopentyl-4-{[methyl(3-phenylpropyl)amino]methyl}benzohydrazide trifluoroacetate] | < 1 nM | 2.5 to 15 nM |  | < 200 nM | 
CN(Cc1ccc(C(=O)NN(c2nc(C#N)ncc2Cl)C2CCCC2)cc1)C1CCC2(CC1)OCC(C)(C)CO2 [Example 65, N′-(5-chloro-2-cyano-4-pyrimidinyl)-N′-cyclopentyl-4-{[(3,3-dimethyl-1,5-dioxaspiro[5.5]undec-9-yl)(methyl)amino]methyl}benzohydrazide trifluoroacetate] | 1 to 2.5 nM | 2.5 to 15 nM |  | < 200 nM | 
CCN(CC)Cc1ccc(C(=O)NN(c2nc(C#N)ncc2Cl)C2CCCC2)cc1 [Example 66, N′-(5-chloro-2-cyano-4-pyrimidinyl)-N′-cyclopentyl-4-[(diethylamino)methyl]benzohydrazide trifluoroacetate] | < 1 nM | 2.5 to 15 nM |  | < 200 nM | 
CCN(Cc1ccc(C(=O)NN(c2nc(C#N)ncc2Cl)C2CCCC2)cc1)C1CCCCC1 [Example 69, N′-(5-chloro-2-cyano-4-pyrimidinyl)-4{[cyclohexyl(ethyl)amino]methyl}-N′-cyclopentylbenzohydrazide trifluoroacetate] | < 1 nM | 2.5 to 15 nM |  | < 200 nM | 
N#Cc1ncc(Cl)c(N(NC(=O)c2ccc(CN3CCC(O)CC3)cc2)C2CCCC2)n1 [Example 70, N′-(5-chloro-2-cyano-4-pyrimidinyl)-N′-cyclopentyl-4-[(4-hydroxy-1-piperidinyl)methyl]benzohydrazide trifluoroacetate] | < 1 nM | 2.5 to 15 nM |  | < 200 nM | 
CN(Cc1ccc(C(=O)NN(c2nc(C#N)ncc2Cl)C2CCCC2)cc1)C(C)(C)Cc1ccccc1 [Example 71, N′-(5-chloro-2-cyano-4-pyrimidinyl)-N′-cyclopentyl-4-{[(1,1-dimethyl-2-phenylethyl)(methyl)amino]methyl}benzohydrazide trifluoroacetate] | < 1 nM | 2.5 to 15 nM |  | < 200 nM | 
CC(C)N(Cc1ccc(C(=O)NN(c2nc(C#N)ncc2Cl)C2CCCC2)cc1)C(C)C [Example 72, 4-{[bis(1-methylethyl)amino]methyl}-N′-(5-chloro-2-cyano-4-pyrimidinyl)-N′-cyclopentylbenzohydrazide trifluoroacetate] | < 1 nM | 2.5 to 15 nM |  | < 200 nM | 
CCN(CCCNC(=O)OC(C)(C)C)Cc1ccc(C(=O)NN(c2nc(C#N)ncc2Cl)C2CCCC2)cc1 [Example 81, 1,1-dimethylethyl{3-[[(4-{[2-(5-chloro-2-cyano-4-pyrimidinyl)-2-cyclopentylhydrazino]carbonyl}phenyl)methyl](ethyl)amino]propyl}carbamate] | < 1 nM |  |  | < 200 nM | 2.5 to 15 nM
